# Reference: PubChem BioAssay (NCI)
#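 Cultured in 96-well plates, cells were exposed to test compound for 48 hours across five concentrations. Definition used: TGI = concentration required for complete inhibition of growth.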
# Key:
# Assay in all cases: NCI tumour cell line growth inhibition, 48 h
# SK-OV-3 ovarian = test system: SK-OV-3 ovarian
# CCRF-CEM leukemia = test system: CCRF-CEM leukemia
# A498 renal = test system: A498 renal
# SW-620 colon = test system: SW-620 colon
# NCI/ADR-RES ovarian = test system: NCI/ADR-RES ovarian
# M14 melanoma = test system: M14 melanoma
# NCI-H460 lung = test system: NCI-H460 lung
# COLO 205 colon = test system: COLO 205 colon
# RPMI-8226 leukemia = test system: RPMI-8226 leukemia
# SK-MEL-5 melanoma = test system: SK-MEL-5 melanoma
# TK-10 renal = test system: TK-10 renal
# NCI-H522 lung = test system: NCI-H522 lung
# EKVX NSCLC = test system: EKVX NSCLC
# SNB-75 CNS = test system: SNB-75 CNS
Structure (SMILES),TGI (SK-OV-3 ovarian) [µM],TGI (CCRF-CEM leukemia) [µM],TGI (A498 renal) [µM],TGI (SW-620 colon) [µM],TGI (NCI/ADR-RES ovarian) [µM],TGI (M14 melanoma) [µM],TGI (NCI-H460 lung) [µM],TGI (COLO 205 colon) [µM],TGI (RPMI-8226 leukemia) [µM],TGI (SK-MEL-5 melanoma) [µM],TGI (TK-10 renal) [µM],TGI (NCI-H522 lung) [µM],TGI (EKVX NSCLC) [µM],TGI (SNB-75 CNS) [µM]
O=c1oc2ccccc2c(O)c1C(c1ccc2ccccc2c1)c1c(O)c2ccccc2oc1=O,> 100,> 100,> 100,87.7,38.5,73.2,73.2,78.2,> 100,54.4,> 100,48.5,> 100,48.7
CC(C)CC(=O)OC[n+]1cccc(-c2c(COC(=O)NC(C)C)c(COC(=O)NC(C)C)c3n2CCC3)c1,> 100,> 100,59,> 100,> 100,> 100,> 100,> 100,> 100,> 100,> 100,49.2,> 100,> 100
CCC1=NC(N/N=C/c2ccccc2O)=N/C1=C\c1ccccc1O,76.2,> 100,85.4,> 100,24,51.9,18.7,> 74.8,53.8,> 100,> 54.6,21,> 100,> 100
CCCN(CCC)C(=S)N/N=C/c1cccc(C)n1,15.7,0.275,0.473,> 100,1.07,1.01,0.748,0.0435,0.546,0.654,0.832,2.51,8.34,0.991
COC(=O)CC1CN(C(=O)OCc2ccccc2)C(C)(C)O1 (configuration not stated),> 100,> 100,> 100,> 100,> 100,> 100,> 100,> 100,> 100,> 100,> 100,> 100,> 100,75.8
CNC(=O)C(C)NC(=O)C(Cc1ccccc1)NC(=O)OC(C)(C)C (configuration not stated),> 100,> 100,> 100,> 100,> 100,> 100,> 100,> 100,> 100,> 100,> 100,> 100,> 100,> 100
COC(=O)C(Cc1ccccc1)C(=O)NC(CNC(=O)OCc1ccccc1)C(=O)OCc1ccccc1 (configuration not stated),> 100,48.9,> 81.4,> 100,> 100,30.4,> 100,37.7,50.2,34,98,72.3,> 100,64.8
CC1=CC[C@@]2(C)[C@@H]([C@@H]1C)[C@H]1CC[C@@H]3[C@@]4(C)CC[C@H](O)C(C)(C)[C@@H]4CC[C@@]3(C)[C@]1(C)C[C@@H]2O,> 64.7,> 53.1,> 39.8,98.6,61.7,32.3,> 67.7,32.1,> 100,> 62,> 70.7,8.15,23.6,> 100
Cc1cc2c(cc1Cl)SC(NNC(=O)c1ccncc1)=NS2(=O)=O,> 10,> 10,> 10,> 10,> 10,> 10,> 10,> 10,> 10,> 10,> 10,> 10,> 10,> 10
Cc1nn(-c2ccccc2)c2nc3c(c(C)nn3-c3ccccc3)c(-c3ccccc3Br)c12,> 100,> 100,> 100,> 100,> 100,> 100,> 100,> 100,> 100,> 100,> 100,> 100,> 100,> 100
Cc1ccc(S(=O)(=O)Oc2coc(CO)cc2=O)cc1,37.7,10.7,30.2,42,> 69.5,25.9,31.1,28.6,36.5,33.7,44.2,3.71,30.1,33.3
O=C(/C=C/c1c(O)c2ccccc2[nH]c1=O)CC(=O)C(=O)Nc1cccc(O)c1,> 100,> 100,> 100,> 100,> 100,> 100,> 100,> 100,> 100,> 100,> 100,> 100,> 100,> 100
COc1c(C(CC(C)C)OC(C)=O)ccc2c1C(=O)OCc1cc(C)cc(O)c1O2 (configuration not stated),31,> 100,34.7,31.5,32.2,31.3,26.8,31.8,> 100,23.2,31.8,26.2,24.1,42.1
